Earlier results, collected in patent publication US20190321375A1, “METHOD OF ADMINISTERING A NE[…] EFFECT ELECTROENCEPHALOGRAPHIC (EEG) BURST SUPPRESSION” (MARINUS PHARMACEUTICALS, INC., priority 2016, published 2019).
Read-outs that look alike come from different tables or passages of the source.

Legend:
[1] = in vivo
patients = conditions: induction bolus

SMILES	half-life (human plasma) [min]	oral availability [1]	half-life (human plasma following oral administration)	Tmax (therapeutic blood levels are reached quickly)	entry into burst suppression (patients)
CC(=O)[C@H]1CC[C@H]2[C@@H]3CC[C@H]4C[C@H](O)CC[C@]4(C)[C@H]3CC[C@]12C [Allopregnanolone, 3α,5α-tetrahydroprogesterone]	45	poor oral availability			
CC(=O)[C@H]1CC[C@H]2[C@@H]3CC[C@H]4C[C@](C)(O)CC[C@]4(C)[C@H]3CC[C@]12C [Ganaxolone, 3α-hydroxy, 3β-methyl-5α-pregnan-20-one]		poor oral availability	approximately 20 hours	short	
CC(C)c1cccc(C(C)C)c1O [propofol]					can enter burst suppression directly from the awake state
